Where “and” joins values, the source holds several entries; their conditions need not be identical. Equal entries are not always repeated. Entries after “also recorded” stand apart in the source; their conditions may differ. Where two headings read alike, the source gives them in different places.
Legend:
clinical = details: for AUC(0-t): AUC(0-12)
Description: (§1) To each sample of participant plasma or urine, A. aerogenes sulfatase (2.5 µL; 10–20 units/mL), and E. coli glucuronidase (2.5 µL; ∼5,000–50,000 units/mL) were used to release the analytes from their sulfate and β-D-glucuronic acid esters (Phase II metabolites). For calibration and validation samples, aqueous glycerol (5 µL) was added to mimic the enzymatic hydrolysis. For all analyses, 1% ascorbic acid (10 µL) was added prior to sample work up to limit oxidation. Samples were incubated (37°C) for 20 min and placed on ice to halt enzymatic activity. […] The supernatant was filtered (0.22 µm spinfilter) at 10,000 g for 5 min at 4°C and used for analysis. To optimize peak shape during analysis, the concentration of organic solvent (sample filtrate) was adjusted to a 60:40 ratio with HPLC grade water for TT analysis and a 90:10 ratio with 1% aqueous formic acid for CQA analysis.
(§2) HPLC-MS/MS was performed at the Oregon Health & Science University’s (OHSU) Bioanalytical Shared Resource/Pharmacokinetics Core (Portland, OR, United States). […] Chromatographic separation was achieved using a Poroshell 120 EC18 column (3 mm id × 50 mm; 2.7 µ) and a Poroshell ultra high-performance liquid chromatography (UHPLC) guard column (3.0 mm i.d. Å∼ 5 mm, 2.7 μ) (Agilent, Santa Clara, CA, United States). The injection volume was 20 μL and flow rate was 0.42 mL/min. Gradient elution was performed using a mobile phase of solvent A (water containing 10 mM ammonium acetate and 0.02% ammonium hydroxide; pH 8.5) and solvent B (methanol). […] Chromatographic separation was achieved using a Zorbax Eclipse plus C8 Rapid resolution (4.6 i.d. Å∼ 150 mm, 3.5 μ) column with a Zorbax Eclipse plus C8 Rapid resolution (4.6 i.d. Å∼ 12.5 mm, 5 μ) guard column (Agilent, Santa Clara, CA, United States). The injection volume was 5 μL and flow rate of 0.8 mL/min. Gradient elution was performed using a mobile phase of solvent A (water containing 0.05% v/v acetic acid) and solvent B (acetonitrile with 0.05% v/v acetic acid).
(§3) Briefly, two in-person study visits occurred a minimum of two weeks and a maximum of four weeks apart in which participants orally consumed 2 or 4 g of CAP (in a randomized order) on an empty stomach. Total study duration was eight weeks including follow-up adverse event monitoring. All study procedures were identical for each visit except for the CAP dose administered. Randomization (to prevent tolerance effects) was performed using an arm equivalence design by the OHSU Research Pharmacy. All study personnel were blind to randomization allocation until all data analysis had been finalized. […] Participants fasted for 10 h, excluding water, prior to each study visit and for 2 h after consuming the study intervention to standardize gastrointestinal transit time and minimize food effects. During study visits, participants were provided low-phytochemical snacks and meals by the OCTRI CTRC’s Bionutrition Unit devoid of the foods outlined in Section 2.5. At each study visit, a peripheral intravenous catheter was placed in the arm to allow for repeat blood sampling. Prior to CAP intake, 20 mL of baseline blood and 50 mL of baseline urine were collected. […] Plasma aliquots (2 mL) were frozen and stored at -80°C until analysis. […] A 50 mL aliquot was retained and frozen at −80°C for renal excretion analysis.
(§4) Sample preparation and analysis: Plasma and urine sample preparation and analyte quantification by LC-MS/MS were performed in duplicate for each time point and visit (Sections 2.2–2.4). Due to the possibility of residual interference from the participant’s diet and unique, individual matrix effects, calibration curves were generated for each participant using their baseline plasma collected at the corresponding visit.

[1] = Description: as §1, §2, §3, §4
[2] = human, 2 weeks
[3] = older adults on cholinesterase inhibitors, ref Wright et al., 2022, cited from earlier work
[4] = cited from earlier work; for Cmax: Songvut et al., 2021
[5] = cited from earlier work
[6] = Analyte storage stability in human urine
[7] = Analyte storage stability in human plasma
[8] = condition 1 long-term storage at −80°C, low concentration
[9] = condition 2 freeze-thaw, medium concentration
[10] = condition 3 overnight storage at 4°C, low concentration
[11] = condition 2 three freeze-thaw cycles, low concentration
[12] = condition 3 4°C for 24 h, medium concentration
[13] = both, human, plasma, po, 2 g, single oral 2 g CAW (CAP), n = 7, mean (SEM)
[14] = both, human, plasma, po, 2 g, Cmax, single oral 2 g CAW (CAP), healthy older adults, n = 7, plasma, mean (SEM), ^ = below LLoQ
[15] = both, human, plasma, po, 2 g, T1/2, single oral 2 g CAW (CAP), n = 7, mean (SEM)
[16] = both, human, plasma, po, 2 g, Tmax, single oral 2 g CAW (CAP), n = 7, mean (SEM)
[17] = both, human, plasma, po, 4 g, single oral 4 g CAW (CAP), n = 7, mean (SEM)
[18] = both, human, plasma, po, 4 g, Cmax, single oral 4 g CAW (CAP), healthy older adults, n = 7, plasma, mean (SEM), ^ = below LLoQ
[19] = both, human, plasma, po, 4 g, T1/2, single oral 4 g CAW (CAP), n = 7, mean (SEM)
[20] = both, human, plasma, po, 4 g, Tmax, single oral 4 g CAW (CAP), n = 7, mean (SEM)
[21] = single oral 2 g CAW (CAP), n = 7, mean (SEM)
[22] = single oral 4 g CAW (CAP), n = 7, mean (SEM)
[23] = condition 1 long-term storage at -80°C, low concentration
[24] = condition 2 three freeze-thaw cycles, medium concentration
[25] = condition 1 long-term storage at −80°C, medium concentration
[26] = condition 2 freeze-thaw, low concentration
[27] = encapsulated ECa 233, healthy adults, ref Songvut et al., 2019
[28] = condition 2 freeze-thaw, high concentration

Row | Compound | T1/2 (clinical; both, human, in vivo, po) | Tmax (clinical; both, human, in vivo, po) | half-life (clinical; both, human, in vivo, po, T1/2) | Tmax (clinical; both, human, in vivo, po, Tmax) | Stability, percent of nominal concentration [6, 8] | Stability, percent of nominal concentration [6, 9] | Stability, percent of nominal concentration [7, 11] | AUC(0-t) (clinical; [13]) | Cmax (clinical; [14]) | half-life (clinical; [15]) | Tmax (clinical; [16]) | AUC(0-t) (clinical; [17]) | Cmax (clinical; [18]) | half-life (clinical; [19]) | Total urinary excretion (12 hr) [1, 21] | Total urinary excretion (12 hr) [1, 22] | Stability, percent of nominal concentration [7, 23] | Stability, percent of nominal concentration [6, 25] | other results
1 | C[C@H]1[C@H](C)CC[C@]2(C(=O)O)CC[C@]3(C)C(=CC[C@@H]4[C@@]5(C)C[C@@H](O)[C@H](O)[C@@](C)(CO)[C@@H]5CC[C@]43C)[C@H]12 [AA, asiatic acid] | 4.9 (1.3) hr | 2.8 (0.2) hr | 4.1 h | 2.2 h |  |  |  |  |  |  |  |  |  |  |  |  |  |  | Cmax (clinical; both, human, in vivo, po, Cmax, range over both doses): 174 to 372 ng/mL; Tmax (clinical; both, human, in vivo, po, Tmax, range over both doses): 2.2 to 2.8 h; Total urinary excretion (12 hr) ([1]; in vivo, po): Not detected; Stability, percent of nominal concentration [2]: 111%; Cmax ([3]; 2 g CAP): 123 ng/mL; Cmax ([3]; 4 g CAP): 259 ng/mL; Tmax ([4]; human, in vivo): 1.5 h; Tmax ([5]; in vivo): 4 to 4.5 h
2 | O=C(O)/C=C/c1ccc(O)c(O)c1 [CA, caffeic acid] | 10.3 (3.7) hr | 4.5 (1.6) hr | 8.4 h | 5.3 h | 211% | 129% | 108% |  |  |  |  |  |  |  |  |  |  |  | AUC(0-12) (clinical; both, human, in vivo, po): 2.4 (0.6) ng/mL*hr; AUC(0-t) (clinical; both, human, in vivo, po): 1.8 ng·h/mL; Cmax (clinical; both, human, in vivo, po, Cmax): 0.5 ng/mL; Stability, percent of nominal concentration [6, 10]: 224%; Stability, percent of nominal concentration ([6]; condition 3 overnight storage at 4°C, medium concentration): 86%; Stability, percent of nominal concentration ([7]; condition 3 4°C for 24 h, low concentration): 63%; Stability, percent of nominal concentration [7, 12]: 75%
3 | O=C(O)CCc1ccc(O)c(O)c1 [DHCA, Dihydrocaffeic acid] |  |  |  |  | 70% |  |  | 1.7 ng·h/mL | 0.4 ng/mL | 1.8 h | 6.1 h | 1.9 ng·h/mL | 0.5 ng/mL | 1.9 h | 26.8 (10.0) µg | 24.8 (6.1) µg | 75% |  | Tmax (clinical; [20]): 3.2 h; Stability, percent of nominal concentration [6, 10]: 106%; Stability, percent of nominal concentration ([7]; condition 1 long-term storage at -80°C, medium concentration): 75%; Stability, percent of nominal concentration ([7]; condition 2 three freeze-thaw cycles, high concentration): 75%; Stability, percent of nominal concentration [7, 24]: 51%; Stability, percent of nominal concentration [7, 12]: 23%
4 | COc1cc(CCC(=O)O)ccc1O [DHFA, Dihydroferulic acid] | 6.6 (3.8) hr | 5.7 (1.5) hr | 7.1 h | 5.9 h | 79% | 84% | 97% |  |  |  |  |  |  |  |  |  | 81% | 67% | AUC(0-12) (clinical; both, human, in vivo, po): 41.0 (12.7) ng/mL*hr; Cmax (clinical; both, human, in vivo, po): 8.1 (2.9) ng/mL; AUC(0-t) (clinical; both, human, in vivo, po): 35.6 ng·h/mL; Cmax (clinical; both, human, in vivo, po, Cmax): 9.3 ng/mL
5 | COc1cc(/C=C/C(=O)O)ccc1O [FA, ferulic acid] |  |  |  |  | 81% |  |  |  |  |  |  |  |  |  | 146.8 (33.5) µg | 137.4 (24.6) µg | 129% |  | Cmax (clinical; single oral 2 g CAW (CAP), healthy older adults, n = 7, plasma, mean (SEM), ^ = below LLoQ): 1.5 (0.3) ng/mL; AUC(0-12) (clinical; [21]): 11.3 (2.9) ng/mL*hr; T1/2 (clinical; [21]): 14.1 (3.9) hr; Tmax (clinical; [21]): 5.9 (1.3) hr; Cmax (clinical; single oral 4 g CAW (CAP), healthy older adults, n = 7, plasma, mean (SEM), ^ = below LLoQ): 1.5 (0.6) ng/mL; AUC(0-12) (clinical; [22]): 9.9 (2.8) ng/mL*hr; T1/2 (clinical; [22]): 2.9 (1.3) hr; Tmax (clinical; [22]): 7.1 (1.2) hr
6 | O=C(O)CCc1cccc(O)c1 [HPP, 3-(3-hydroxyphenyl) propionic acid] |  |  |  |  | 48% |  |  | 56.8 ng·h/mL | 5.8 ng/mL | 5 h | 7.4 h | 50.2 ng·h/mL | 10.6 ng/mL | 2.6 h | 223.4 (76.7) µg | 247.9 (73.6) µg |  | 81% | Tmax (clinical; [20]): 5.7 h; Stability, percent of nominal concentration [6, 26]: 96%
7 | COc1ccc(/C=C/C(=O)O)cc1O [IFA, isoferulic acid] |  |  |  |  |  | 80% |  | 5.3 ng·h/mL | 1.5 ng/mL | 7 h | 2.4 h | 7.4 ng·h/mL | 1.5 ng/mL | 3.5 h | 65.9 (23.1) µg |  |  |  | Stability, percent of nominal concentration ([6]; condition 1 long-term storage at −80°C, high concentration): 84%; Stability, percent of nominal concentration [6, 26]: less than 115%; Stability, percent of nominal concentration [7, 24]: 117%
8 | C[C@H]1[C@H](C)CC[C@]2(C(=O)O)CC[C@]3(C)C(=CC[C@@H]4[C@@]5(C)C[C@@H](O)[C@H](O)[C@@](C)(CO)[C@@H]5[C@H](O)C[C@]43C)[C@H]12 [MA, madecassic acid] |  | 2.2 to 2.8 h |  |  |  |  | 100% |  |  |  |  |  |  |  |  |  |  |  | Cmax (clinical; both, human, in vivo, po): 107 to 197 ng/mL; Cmax (clinical; both, human, in vivo, po, 2 g): 210 nM and 107 ng/mL; Tmax (clinical; both, human, in vivo, po, 2 g): 2.4 h; half-life (clinical; both, human, in vivo, po, 2 g): 9.2 h; Cmax (clinical; both, human, in vivo, po, 4 g): 390 nM and 197 ng/mL; Tmax (clinical; both, human, in vivo, po, 4 g): 2.7 h; half-life (clinical; both, human, in vivo, po, 4 g): 6.7 h; Cmax ([3]; 2 g CAP): 38 ng/mL; Cmax ([3]; 4 g CAP): 63 ng/mL; Cmax ([4]; ECa 233 250 mg, ref Songvut et al., 2019): 40 ng/mL; Cmax ([4]; ECa 233 500 mg, ref Songvut et al., 2019): 52 ng/mL; Tmax [4, 27]: 1.5 h; Cmax ([4]; read-out: Cmax (molar), ECa 233 250 mg, ref Songvut et al., 2019): 80 nM; Cmax ([4]; read-out: Cmax (molar), ECa 233 500 mg, ref Songvut et al., 2019): 100 nM; Tmax ([5]; capsular form, ref Grimaldi et al., 1990, Leng et al., 2013, Wright et al., 2022): 4 to 4.5 h; Stability, percent of nominal concentration [6, 28]: 80%
9 | madecassoside [MS] |  |  |  |  | 57% | 78% |  |  |  |  |  |  |  |  | Not detected | Not detected |  | 84% | Detection in plasma (clinical; after 2 or 4 g CAP, oral): not detected; also recorded: below the LoD; Tmax [4, 27]: 1 to 2 h; Stability, percent of nominal concentration [6, 28]: 82%

From PMC10481538, “Bioanalytical method validation and application to a phase 1, double-blind, randomized pharmacokinetic trial of a standardized Centella asiatica (L.) Urban water extract product in healthy older adults” (Frontiers in Pharmacology, 2023)
